Measurements from patent publication US12510533B2, “Methods for treating multiple myeloma and the use of companion biomarkers for 4-(4-(4-(((2-(2,6-dioxopiperidin-3-yl)-1-oxoisoindolin-4-yl)oxy)methyl)benzyl)piperazin-1-yl)-3-fluorobenzonitrile” (Celgene Corporation, priority 2018, dated 2025).
Where two headings read alike, the source gives them in different places.

Columns and labels:
[1] = target: Ikaros (Homo sapiens, UniProt Q13422+Q96SW2); assay: Ikaros degradation in CD4+ T cells; format: cell-based; design: The effects of Compound 2 on the degradation of Ikaros in CD4+ and CD8+ T cells; endogenous in cells; host or cells: CD4+ and CD8+ T cells of healthy donors; CD34+ bone marrow cells of healthy donors; CD3+ T cells of multiple myeloma patients; details: 24 hours, read-out: Ikaros degradation IC50
Sequence of Ikaros (Q13422 whole entry): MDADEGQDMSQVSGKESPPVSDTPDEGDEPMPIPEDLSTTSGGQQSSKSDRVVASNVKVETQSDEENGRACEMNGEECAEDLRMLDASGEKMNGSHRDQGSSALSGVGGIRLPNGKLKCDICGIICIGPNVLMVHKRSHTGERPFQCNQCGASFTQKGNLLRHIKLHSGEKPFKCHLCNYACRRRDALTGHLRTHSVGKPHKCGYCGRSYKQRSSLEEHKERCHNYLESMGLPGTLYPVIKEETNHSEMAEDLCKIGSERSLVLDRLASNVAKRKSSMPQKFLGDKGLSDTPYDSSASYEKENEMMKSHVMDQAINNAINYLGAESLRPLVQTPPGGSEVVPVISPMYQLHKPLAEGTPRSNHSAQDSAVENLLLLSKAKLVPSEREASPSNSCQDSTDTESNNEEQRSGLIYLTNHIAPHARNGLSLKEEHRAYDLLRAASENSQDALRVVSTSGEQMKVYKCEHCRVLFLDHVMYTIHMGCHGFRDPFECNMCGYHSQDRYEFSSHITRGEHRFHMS
Sequence of Ikaros (Q16531 2-1140, further chain): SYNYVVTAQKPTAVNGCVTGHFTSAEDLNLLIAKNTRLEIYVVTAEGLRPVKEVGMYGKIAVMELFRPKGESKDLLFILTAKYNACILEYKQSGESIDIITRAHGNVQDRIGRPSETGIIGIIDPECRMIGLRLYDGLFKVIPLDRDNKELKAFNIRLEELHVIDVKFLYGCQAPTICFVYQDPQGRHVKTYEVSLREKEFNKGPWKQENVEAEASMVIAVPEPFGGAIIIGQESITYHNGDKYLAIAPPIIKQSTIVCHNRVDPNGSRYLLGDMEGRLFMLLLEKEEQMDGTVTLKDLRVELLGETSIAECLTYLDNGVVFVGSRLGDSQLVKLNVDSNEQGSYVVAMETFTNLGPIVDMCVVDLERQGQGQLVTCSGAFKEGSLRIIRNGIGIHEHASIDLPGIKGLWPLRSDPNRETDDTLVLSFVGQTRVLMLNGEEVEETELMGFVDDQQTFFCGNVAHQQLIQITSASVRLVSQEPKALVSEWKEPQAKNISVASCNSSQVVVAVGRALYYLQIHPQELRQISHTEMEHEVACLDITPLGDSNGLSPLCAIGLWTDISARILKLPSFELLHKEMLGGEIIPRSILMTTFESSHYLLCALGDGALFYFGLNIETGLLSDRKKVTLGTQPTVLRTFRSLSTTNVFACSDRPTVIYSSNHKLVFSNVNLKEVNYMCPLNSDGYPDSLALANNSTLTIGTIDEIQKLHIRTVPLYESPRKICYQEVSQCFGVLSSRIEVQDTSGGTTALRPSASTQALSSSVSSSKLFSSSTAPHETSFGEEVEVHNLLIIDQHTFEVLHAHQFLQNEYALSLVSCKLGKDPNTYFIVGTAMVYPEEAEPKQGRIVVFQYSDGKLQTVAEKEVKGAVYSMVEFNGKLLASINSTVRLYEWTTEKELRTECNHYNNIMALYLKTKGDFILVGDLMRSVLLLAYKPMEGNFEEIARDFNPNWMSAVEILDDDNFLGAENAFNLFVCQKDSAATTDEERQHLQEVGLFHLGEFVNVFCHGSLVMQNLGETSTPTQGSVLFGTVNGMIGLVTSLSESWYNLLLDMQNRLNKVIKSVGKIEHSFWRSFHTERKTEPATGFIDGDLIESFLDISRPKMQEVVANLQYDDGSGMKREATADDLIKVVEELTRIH
Sequence of Ikaros (Q96SW2 whole entry): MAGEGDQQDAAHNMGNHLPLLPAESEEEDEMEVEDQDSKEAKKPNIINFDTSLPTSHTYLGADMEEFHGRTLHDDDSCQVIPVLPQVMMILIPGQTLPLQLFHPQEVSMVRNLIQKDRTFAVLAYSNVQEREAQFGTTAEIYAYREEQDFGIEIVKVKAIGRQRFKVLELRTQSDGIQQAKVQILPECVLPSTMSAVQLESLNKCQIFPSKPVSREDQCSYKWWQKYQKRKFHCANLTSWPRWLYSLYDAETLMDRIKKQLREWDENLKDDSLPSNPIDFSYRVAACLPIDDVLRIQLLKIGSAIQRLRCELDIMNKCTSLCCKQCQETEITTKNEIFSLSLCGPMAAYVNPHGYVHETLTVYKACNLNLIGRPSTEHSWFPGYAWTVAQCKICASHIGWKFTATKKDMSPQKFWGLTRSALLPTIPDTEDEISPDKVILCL
Protocol: FIG. 22A-FIG. 22C illustrate that Compound 2 induces degradation of Ikaros in CD4+ T cells. […] Data shown are an average from two donors and are represented as MFI normalized to DMSO control.
The effects of Compound 2 on the degradation of Ikaros in CD4+ and CD8+ T cells over a 72 hour time course were investigated. The ability of Compound 2 to induce effector cytokine release correlated with degradation of Ikaros in CD4+ T cells, a known transcriptional repressor of IL-2 (FIG. 22A-FIG. 22C). […] The ability of Compound 2 to degrade Ikaros was also observed at the 48 and 72 hour time point in both CD4+(FIG. 22B and FIG. 22C) and CD8+ (data not shown) T cell populations. […] Thus, Ikaros and Aiolos can serve as biomarkers of T-cell activation.

[2] = tested on: OPM2 cells; assay: cells; format: cell-based, human; details: for IC50: Homo sapiens
Protocol: The effect of the stabilizing mutations on cell proliferation was also measured.

[3] = tested on: NCI-H929 cells; assay: PBMC-induced MM cell lysis, PBMCs and MM cells both pretreated, versus single MM culture (NCI-H929); format: cell-based, human; details: PBMCs and MM cells both preincubated 72 hours
Protocol: Ninety-six-well dishes were pre-coated with anti-CD3 antibody (OKT3, 3 μg/mL) and incubated at 4° C. overnight before the start of the experiment. Frozen PBMC donor cells were thawed at 37° C. for 2 minutes in RPMI medium with 10% FBS and cell counts and viability were measured on the Vi-CELL analyzer. Peripheral blood mononuclear cells were washed and diluted to 1×10^6 cells/mL and dispensed into the compound-treated plates in a total volume of 200 μL. Cells were incubated with Compound 2 for 2 hours before being transferred onto anti-CD3-coated plates and incubated for an additional 72 hours. At the same time, MM cell lines (NCI-H929, H929-1051, OPM2, OPM2-P10) were diluted to a final concentration of 0.1×10^6 cells/mL and labeled with CellTrace CFSE according to manufacturer's instructions. Multiple myeloma cell lines were then dispensed into compound-treated plates at a total volume of 200 μL and incubated for 72 hours. After 72 hours, the PBMCs and MM cells were counted and transferred into a U-bottom 96-well plate at a final T:E ratio of 1:5. After 24 hours coculture, specific target cell lysis by PBMC mediated apoptosis was measured using Annexin V-AF647 and 7-AAD according to manufacturer's instructions and samples were run on the Attune NxT Cytometer. […]

[4] = tested on: interferon gamma (IFN-γ); assay: IFN-γ production by TCR-activated healthy PBMCs; format: cell-based, human; details: 24 hours
Protocol: FIG. 21A-FIG. 21C illustrate that Compound 2 is a potent inducer of effector cytokines. […] (FIG. 21A) IL-2, (FIG. 21B) IFN-γ, and (FIG. 21C) TNF-α. Data shown are an average from three or four donors and are represented as fold change over DMSO control; error bars represent standard error of the mean (SEM).
The immunomodulatory activity of Compound 2 on T cell receptor (TCR)-activated healthy PBMCs was assessed. […] This increased in cytokine secretion was evident as early as 24 hours after introduction of Compound 2 with the peak of the effector cytokine production induced by Compound 2 being 5.5-fold for IL-2, 4.5-fold for interferon gamma (IFN-γ), and 2-fold for tumor necrosis factor alpha (TNF-α) above the vehicle control (FIG. 21A-FIG. 21C, respectively).

[5] = tested on: multiple myeloma cell lines with acquired resistance; assay: Proliferation (CellTiter-Glo, 5 days) of parental and lenalidomide- or pomalidomide-resistant MM cell lines; format: cell-based, human
Protocol: Cell lines were treated with (FIG. 11A) Pomalidomide, or (FIG. 11B) Compound 2 for 5 days and IC50 values were assessed using an ATP determination assay (CellTiter-Glo). Percent control was calculated by subtracting the background and normalizing to the DMSO control (100% of control).
Cells were treated for 5 days and then assessed using an ATP determination assay (CellTiter-Glo). The percentage of control was calculated by subtracting the background and normalizing to the DMSO control (100% of control).
Proliferation was assessed using the CellTitre-Glo® assay.

[6] = tested on: Aiolos, Ikaros, and ZFP91; assay: Phase 1 study, IHC of bone marrow aspirate clots; format: in vivo, human; details: before and during treatment (Cycle 1)
Text: FIG. 26A-FIG. 26E illustrate that the effect of Compound 2 on biomarker expression in CD138+ plasma cells from relapsed/refractory multiple myeloma patients. (FIG. 26A) Aiolos, (FIG. 26B) Ikaros, (FIG. 26C) ZFP91, (FIG. 26D) c-Myc, and (FIG. 26E) IRF4.
Bone marrow aspirate samples were taken before and during Compound 2 treatment (Cycle 1). Clots were made from each sample and processed into formalin fixed paraffin embedded blocks. Immunohistochemistry (IHC) assays were used to evaluate the biomarker expression. IHC scores were determined based on percent and intensity of positive staining.

Question: Which results are given for N#Cc1ccc(N2CCN(Cc3ccc(COc4cccc5c4CN([C@H]4CCC(=O)NC4=O)C5=O)cc3)CC2)c(F)c1 [Compound 2, (S)-4-(4-(4-(((2-(2,6-dioxopiperidin-3-yl)-1-oxoisoindolin-4-yl)oxy)methyl)benzyl)piperazin-1-yl)-3-fluorobenzonitrile]?
Answer: DC50 [1]: 0.3 nM; IC50 ([2]; OPM-2, cells overexpressing stabilized Ikaros mutants (Ikaros-Q146H or Ikaros-G151A), read-out: concentration at which cells had their proliferation inhibited by 50%): > 100 nM; IC50 ([2]; OPM-2, overexpressing Aiolos Q147H, read-out: Inhibition of Proliferation of OPM2 Cells IC50): 0.06 nM; IC50 ([2]; OPM-2, overexpressing Aiolos, read-out: Inhibition of Proliferation of OPM2 Cells IC50): 0.08 nM; IC50 ([2]; OPM-2, overexpressing Ikaros-G151A, read-out: Inhibition of Proliferation of OPM2 Cells IC50): > 100 nM; IC50 ([2]; OPM-2, overexpressing Ikaros-Q146H, read-out: Inhibition of Proliferation of OPM2 Cells IC50): > 100 nM; IC50 ([2]; OPM-2, overexpressing Ikaros, read-out: Inhibition of Proliferation of OPM2 Cells IC50): 0.13 nM; IC50 ([2]; OPM-2, overexpressing ZFP91-Q400H, read-out: Inhibition of Proliferation of OPM2 Cells IC50): 0.08 nM; increase of the 50% inhibitory concentration relative to the parental cells ([2]; cells overexpressing stabilized Ikaros mutants): more than 200 fold; enhancement of killing, IC50 of single MM culture versus immune and tumor cell co-culture [3]: ~7000 fold; peak IFN-γ production above the vehicle control [4]: 4.5 fold; sensitivity of cell lines with acquired resistance and low CRBN [5]: sensitive; anti-proliferative activity ([5]; DF15R cell line, lacks CRBN expression): little anti-proliferative activity; biomarker expression in the tumor compartment (IHC) [6]: induced degradation of Aiolos, Ikaros, and ZFP91
